One block for each compound: values may come before it. Side chains are listed from the residue outwards. Peptide text beside a SMILES is read from it. * marks the point of attachment. X1 = NCCCC[C@H](N)CN1CCC[C@H]1C(=O)*
Tests used:
[1] = test system: NIH-3T3 cells; test: Proliferation of NIH-3T3 cells stimulated by 5% foetal calf serum (tritiated thymidine incorporation); format: cell-based; details: non-stimulated NIH-3T3 cells
Procedure: FIG. 5. Effect of HB-19 on the proliferation of NIH-3T3 cells stimulated by 0.2 nM FGF-2 (A) or by 5% foetal calf serum (B). Quiescent NIH-3T3 cells are stimulated by FGF-2 or by 5% serum in the presence or not of HB19 at the concentrations indicated. After 24 hours of incubation, cell proliferation was determined by measuring the incorporation of tritiated thymidine. The results are given as a percentage with respect to the control stimulated by HARP (100%). MSD (threshold), (**p<0.01 and ***p<0.001).
FIG. 14. Effect of NUCANT 3, 6 and 7 on the proliferation of NIH-3T3 cells stimulated by 5% FCS. […] After 24 hours of incubation, cell proliferation was determined by measuring the incorporation of tritiated thymidine. […]
The effect of Nucant 3 on the proliferation of NIH-3T3 cells treated by 5% of FCS was also compared to that of compound HB-19. […] After 24 hours in incubation, cell proliferation is determined by measuring the incorporation of tritiated thymidine as described earlier.
The effect of hexavalent compounds Nucant 6 and Nucant 7 on the proliferation of NIH-3T3 cells triggered by 5% FCS was compared with that of pentavalent compound HB-19. […] After 24 hours of incubation, cell proliferation was determined by measuring the incorporation of tritiated thymidine as described above.

[2] = target: T1, surface nucleolin (Homo sapiens, UniProt P19338); test: Activity of surface nucleolin in HeLa P4 cells; format: cell-based
T1 construct: endogenous in cells; host or cells: HeLa P4 cells
T1 sequence (P19338 whole entry): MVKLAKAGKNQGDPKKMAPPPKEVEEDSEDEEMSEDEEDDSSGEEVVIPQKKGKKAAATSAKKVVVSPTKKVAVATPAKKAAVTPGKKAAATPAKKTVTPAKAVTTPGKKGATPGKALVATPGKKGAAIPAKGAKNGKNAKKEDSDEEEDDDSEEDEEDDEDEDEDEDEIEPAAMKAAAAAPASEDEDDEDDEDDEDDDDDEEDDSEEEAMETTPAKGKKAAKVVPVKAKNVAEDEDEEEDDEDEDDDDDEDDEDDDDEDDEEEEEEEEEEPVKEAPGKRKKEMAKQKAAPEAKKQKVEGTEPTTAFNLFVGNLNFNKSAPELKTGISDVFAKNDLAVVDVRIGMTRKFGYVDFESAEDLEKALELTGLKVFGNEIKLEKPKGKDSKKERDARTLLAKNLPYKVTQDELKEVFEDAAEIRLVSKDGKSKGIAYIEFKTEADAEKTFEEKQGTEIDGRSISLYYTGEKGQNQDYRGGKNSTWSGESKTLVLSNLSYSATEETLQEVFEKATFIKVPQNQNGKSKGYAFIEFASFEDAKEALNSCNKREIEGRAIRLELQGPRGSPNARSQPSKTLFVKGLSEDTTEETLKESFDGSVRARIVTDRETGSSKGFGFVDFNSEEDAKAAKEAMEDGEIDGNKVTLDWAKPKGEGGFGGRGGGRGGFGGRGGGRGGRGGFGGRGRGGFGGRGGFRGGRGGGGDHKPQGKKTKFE
Procedure: FIG. 15. Nucant 6 and Nucant 7 show better anti-surface nucleolin activity than HB-19. ID50: concentration in μM which inhibits surface nucleolin by 50%. ID95: concentration in μM which inhibits surface nucleolin by 95%.
The activity of surface nucleolin was tested in HeLa P4 cells using the technique we have described previously (13).

[3] = test system: MDA-MB231 tumours; test: Tumour growth in MDA-MB231 xenograft model in athymic mice; format: in vivo, athymic mice (nude/nude)
Procedure: FIG. 9. Effect of HB-19 on tumour growth in an MDA-MB231 xenograft model. Human mammary carcinoma MDA-MB231 cells were injected subcutaneously athymic mice (nude). When the tumour reached a volume of 200 mm^3, mice were treated by subcutaneous route as shown in graph in A. B. Observation and measurement of tumours in mice sacrificed at day 40. C. Tumour weight in mice sacrificed at day 40.
FIG. 10. Effect of HB-19 on tumour growth in an MDA-MB231 xenograft model. Changes in tumour growth. Intraperitoneal (IP) or subcutaneous (SC) injections.
Groups of 4 athymic mice (nude/nude) were injected in the flank with 2×10^6 cells. When tumour volume reached at least 200 mm^3, mice were either treated or not by injection in the tumour (peritumoral or subcutaneous route) of 100 μl every two days of a PBS solution (control group) or HB-19 solution (5 mg/kg) or a commonly used clinical agent, tamoxifen (also called […], 10 mg/kg). Tumour size was measured on days 7, 14, 21, 28, 34 and 40 using a calliper.
In another experiment, HB19 (5 mg/kg) was administered by intraperitoneal route (IP) and peritumoral route (SC) (FIG. 10).

[4] = cited from earlier work
[5] = 10 mg/kg, mice sacrificed after 40 days of treatment

inhibition at 0.8 µM ([2]; M-HeLa, 0.8 μM): > 95%
IC50 ([2]; read-out: ID50 value (Inhibitory Dose at 50%), surface nucleolin activity): < 100 nM
Compound: CC(=O)N[C@@H](CCCCNC(=O)[C@H](CCCNC(=N)N)NC(=O)[C@@H]1CCCN1C[C@@H](N)CCCCN)C(=O)N[C@@H](C)C(=O)N[C@@H](CCCCNC(=O)[C@H](CCCNC(=N)N)NC(=O)[C@@H]1CCCN1C[C@@H](N)CCCCN)C(=O)N1CCC[C@H]1C(=O)NCC(=O)N[C@@H](CCCCNC(=O)[C@H](CCCNC(=N)N)NC(=O)[C@@H]1CCCN1C[C@@H](N)CCCCN)C(=O)N[C@@H](C)C(=O)N[C@@H](CCCCNC(=O)[C@H](CCCNC(=N)N)NC(=O)[C@@H]1CCCN1C[C@@H](N)CCCCN)C(=O)N1CCC[C@H]1C(=O)NCC(=O)N[C@@H](CCCCNC(=O)[C@H](CCCNC(=N)N)NC(=O)[C@@H]1CCCN1C[C@@H](N)CCCCN)C(=O)N[C@@H](C)C(=O)N[C@@H](CCCCNC(=O)[C@H](CCCNC(=N)N)NC(=O)[C@@H]1CCCN1C[C@@H](N)CCCCN)C(=O)N1CCC[C@H]1C(=O)NCC(N)=O [Nucant 7] (Ac-K([Arg-X1])AK([Arg-X1])PGK([Arg-X1])AK([Arg-X1])PGK([Arg-X1])AK([Arg-X1])PG-NH2)
effect on non-stimulated cells (toxicity) [1]: No effect

Compound: CC/C(=C(\c1ccccc1)c1ccc(OCCN(C)C)cc1)c1ccccc1 [tamoxifen]
change of tumour volume from the start of treatment ([3]; 10 mg/kg every two days): did not change in a significant manner
average weight of tumours [3, 5]: 0.06 g
distribution of tumour weight [3, 5]: 0.006 to 0.22 g

Compound: Avastin: anti-angiogenic agent
survival ([4]; complement to chemotherapy (irinotecan/5-fluorouracile/leucovorin)): 20.3 months
length of time during which the tumour did not grow ([4]; complement to chemotherapy): 10.6 months
